From patent US11304974B2, “Nanosystems comprising silver and antibiotics and their use for the treatment of bacterial infections” (priority 2017, dated 2022)
Read-outs that look alike come from different tables or passages of the source.

What was measured:
[1] = tested on: S. aureus Sa-1 (strain 1); experiment: Epsilometry E-test, absence and presence of silver (Example 5); type: cell-based; details: Staphylococcus aureus
Method: (§1) In order to evaluate the synergy of collargol-antibiotics an epsilometry E-test was carried out. Said test is based on the agar diffusion method and relates to using a strip with a predefined steady gradient of 15 concentrations of the antibiotic being tested. After strain growth, an elliptical inhibition halo, being the MIC the antibiotic concentration corresponding to the cutting point.
(§2) It was performed for the antibiotics vancomycin, linezolid and tedizolid, in absence and presence of silver (½ and 1/10 MIC).

[2] = tested on: S. aureus Sa-10 (strain 9); experiment: as above; type: cell-based; details: Staphylococcus aureus
Method: as §1, §2

[3] = tested on: S. aureus Sa-11 (strain 10); experiment: as above; type: cell-based; details: Staphylococcus aureus
Method: as §1, §2

[4] = tested on: S. aureus Sa-12 (strain 11); experiment: as above; type: cell-based; details: Staphylococcus aureus
Method: as §1, §2

[5] = tested on: S. aureus Sa-13 (strain 12); experiment: as above; type: cell-based; details: Staphylococcus aureus
Method: as §1, §2

[6] = tested on: S. aureus Sa-14 (strain 13); experiment: as above; type: cell-based; details: Staphylococcus aureus, strain 13 (S. aureus Sa-14)
Method: as §1, §2

[7] = tested on: S. aureus Sa-3 (strain 3); experiment: as above; type: cell-based; details: Staphylococcus aureus
Method: as §1, §2

[8] = tested on: S. aureus Sa-9 (strain 8); experiment: as above; type: cell-based; details: Staphylococcus aureus
Method: as §1, §2

[9] = tested on: S. epidermidis Se-1 (strain 14); experiment: as above; type: cell-based; details: Staphylococcus epidermidis
Method: as §1, §2

[10] = tested on: S.aureus ATCC 700698 Sa-SARM (strain 15); experiment: as above; type: cell-based; details: Staphylococcus aureus
Method: as §1, §2

Gram Positive Bacteria = experiment: Silver-antibiotics interaction study, MicroScan (Example 4); type: cell-based, S. aureus; details: subinhibitory colloidal silver (½ or 1/10 MIC)
Method: The effect of subinhibitory concentrations of colloidal silver (namely, ½ and 1/10 dilution of the MIC obtained in Example 3) in the presence of different types of antibiotics was tested.
For this, an automated equipment MicroScan AutoScan 4 (Siemens) was used, using Gram negative (Becman Coulter NM37) and Gram positive (Becman Coulter PM28) cards.
Each of these broths served as inoculum for the cards with antibiotics (for each strain, thus 3 cards were prepared). • Incubating the plates with antibiotics (in presence and absence of silver) at 37° C. for 24 h. • Reading the cards by use of LabPro software, and interpretation of the obtained values of MIC (determine if the silver reduces the initial MCI of each antibiotic).

[11] = tested on: S. aureus Sa-3 (strain 3); experiment: Checkerboard synergy test collargol-vancomycin (Example 5); details: Staphylococcus aureus, read-out: MIC (product alone, Checkerboard test)
Method: (§3) To determine the existence of synergistic activity between collargol and vancomycin, a checkerboard test using plates having a “U”-shaped bottom (TPP) of 96 wells was used. Double subinhibitory serial dilutions of the two antimicrobials were prepared, so that the concentration of collargol decreased vertically (up-down) and the concentration of vancomycin decreased horizontally (left-right).
(§4) To quantify the synergistic activity of the two combined compounds, the Index fractional inhibitory concentration (IFIC) parameter was used. This index relates MIC of the antimicrobial 1 with the antimicrobial 2 alone and in combination, according to the following formula:
(§5) It is considered that there is synergistic effect if the IFIC value is <0.5.
(§6) The procedure was as follows: • Preparation of fresh cultures of each of the strains on blood agar (37° C., 24 h). […] The well wherein the minimum value of IFIC is obtained is chosen.

[12] = tested on: S. aureus Sa-10 (strain 9); experiment: as above; details: Staphylococcus aureus, read-out: MIC (product alone, Checkerboard test)
Method: as §3, §4, §5, §6

[13] = tested on: S. aureus Sa-11 (strain 10); experiment: as above; details: Staphylococcus aureus, read-out: MIC (product alone, Checkerboard test)
Method: as §3, §4, §5, §6

[14] = tested on: S. aureus Sa-12 (strain 11); experiment: as above; details: Staphylococcus aureus, read-out: MIC (product alone, Checkerboard test)
Method: as §3, §4, §5, §6

[15] = tested on: S. epidermidis Se-1 (strain 14); experiment: as above; details: Staphylococcus epidermidis, read-out: MIC (product alone, Checkerboard test)
Method: as §3, §4, §5, §6

[16] = read-out: MIC (E-test) MH (without silver)
[17] = read-out: MIC (E-test) MH-1/10 MIC
[18] = read-out: MIC (E-test) MH-½ MIC

SMILES: CN[C@H](CC(C)C)C(=O)N[C@H]1C(=O)N[C@@H](CC(N)=O)C(=O)N[C@H]2C(=O)N[C@H]3C(=O)N[C@H](C(=O)N[C@H](C(=O)O)c4cc(O)cc(O)c4-c4cc3ccc4O)[C@H](O)c3ccc(c(Cl)c3)Oc3cc2cc(c3O[C@@H]2O[C@H](CO)[C@@H](O)[C@H](O)[C@H]2O[C@H]2C[C@](C)(N)[C@H](O)[C@H](C)O2)Oc2ccc(cc2Cl)[C@H]1O [Vancomycin]
- MIC [1, 16]: 0.5 µg/mL
- MIC [1, 17]: 0.5 µg/mL
- MIC [1, 18]: 0.38 µg/mL
- MIC [2, 16]: 1 µg/mL
- MIC [2, 17]: 1 µg/mL
- MIC [2, 18]: 0.38 µg/mL
- MIC [3, 16]: 0.5 µg/mL
- MIC [3, 17]: 0.38 µg/mL
- MIC [3, 18]: 0.25 µg/mL
- MIC [4, 16]: 1 µg/mL
- MIC [4, 17]: 1 µg/mL
- MIC [4, 18]: 0.5 µg/mL
- MIC [5, 16]: 0.5 µg/mL
- MIC [5, 17]: 0.5 µg/mL
- MIC [5, 18]: 0.38 µg/mL
- MIC ([6]; MH agar with 1/10 MIC of colargol, read-out: MIC (E-test) MH-1/10 MIC): 0.38 µg/mL
- MIC ([6]; MH agar with ½ MIC of colargol, read-out: MIC (E-test) MH-½ MIC): 0.25 µg/mL
- MIC ([6]; MH agar without silver, read-out: MIC (E-test) MH (without silver)): 0.38 µg/mL
- MIC [7, 16]: 0.75 µg/mL
- MIC [7, 17]: 0.75 µg/mL
- MIC [7, 18]: 0.38 µg/mL
- MIC [8, 16]: 1 µg/mL
- MIC [8, 17]: 1 µg/mL
- MIC [8, 18]: 0.75 µg/mL
- MIC [9, 16]: 0.75 µg/mL
- MIC [9, 17]: 0.5 µg/mL
- MIC [9, 18]: 0.38 µg/mL
- MIC ([10]; ATCC700698, read-out: MIC (E-test) MH (without silver)): 1.5 µg/mL
- MIC ([10]; ATCC700698, read-out: MIC (E-test) MH-1/10 MIC): 1 µg/mL
- MIC ([10]; ATCC700698, read-out: MIC (E-test) MH-½ MIC): 1 µg/mL
- Effect of silver on the strain's sensitivity to the antibiotic (Gram Positive Bacteria): improved sensitivity
- MIC [11]: 1 µg/mL
- MIC [12]: 1 µg/mL
- MIC [13]: 1 µg/mL
- MIC [14]: 1 µg/mL
- MIC [15]: 1 µg/mL
